The text below walks through data of patent US20100168228A1, “NOVEL CHEMOTHERAPEUTIC AGENTS AGAINST INFLAMMATION AND CANCER” (RELIANCE LIFE SCIENCES PVT. LTD., priority 2006, published 2010).

One experiment relates to RAW 264.7 cells. The experiment is described as follows: Nitrite quantification (Griess) in LPS stimulated macrophages. It is filed as cell-based, mouse. The conditions noted are these: RAW 264.7 + LPS (200 ng/ml) + 10 μM compound, 24 h; LPS + DMSO control 14.560, basal 0.782. How it is done: NO2^− accumulation was used as an indicator of Nitric Oxide (NO) production in the medium as described previously (Green et al., 1982 Anal Biochem 126, 131-138). […] The isolated supernatants were mixed with an equal volume of Griess reagent (1% sulfanilamide, 0.1% naphthylenediamine dihydrochloride, and 2% phosphoric acid) and incubated at room temperature for 15 min. NaNO2 was used to generate a standard curve, and nitrite production was determined by measuring the optical density at 540 nm.
To estimate the anti-inflammatory effects of all the synthetic molecules listed in this study, we measured the accumulation of nitrite, the stable metabolite of NO, in the culture media using Griess reagent.
To investigate the effect of CAMVE on NO production, we measured the accumulation of nitrite, the stable metabolite of NO, in the culture media using Griess reagent. To investigate the effect of CAMVE on NO production, Raw 264.7 cells, pretreated with indicated concentrations of CAMVE for 1 h were incubated with LPS (250 ng/ml) for 24 h.
Background: Griess reagent forms a coloured azo dye with nitrite.

The next experiment deals with TNFα. Description: Bioassay of TNFα production by LPS activated RAW 264.7 macrophages using L929 cell line. Format: cell-based. The conditions noted are these: Mus musculus; L929 + ActD + supernatant from LPS + compound (10 μM) treated RAW 264.7 macrophage; crystal violet; mean ± S.D. of triplicate; read-out: PERCENTAGE CELL SURVIVAL ± S.D. As for the experimental part: Measurement of TNFα in culture medium or supernatant is performed using immunoassay and bioassay. Bioassay was used for the measurement of bioactive TNFα production in the culture medium.
TNFα secretion into the medium by LPS activated macrophage was assayed using L929 tumorigenic murine cells (ATCC) specifically sensitive to TNFα. L929 cell cytotoxicity assay was performed by a modified method (Sano et al., The Journal of Immunology, 1999, 163: 387-395 The Journal of Immunology, 1999, 163: 387-395) based on that described elsewhere (Flick D A, Gifford G E. J Immunol Methods. 1984 Mar. 30; 68(1-2): 167-175). Briefly, the L929 cells (log phase cells) were seeded into a flat bottom 96 well plates (6×10^4/well) in 100 μl volume of RPMI 1640 containing 2% FCS and incubated overnight at 37° C. in a 5% CO2 incubator. A working dilution of the culture supernatant collected from LPS (200 ng/ml) activated macrophage in a volume of 100 μl per well was first tested to obtain 70-75% cytotoxicity equivalent to […] of recombinant TNFα standard to the TNFα sensitive L929 cell line. After incubation of the L929 cells appropriate fixed dilution of the culture supernatant collected from the compound treated (10 μM) wells, containing the LPS stimulated macrophages in a volume of 100 μl with 2 μg/ml Actinomycin D (Act D) was taken and added to the L929 cells and the cells were incubated at room temperature for 15 min followed by 18 h incubation at 37° C. overnight with 5% CO2. On the next day the medium was removed and the cells were stained with 0.2% (w/v) crystal violet for 10 minutes. The wells were gently rinsed with water, and 33% acetic acid (100 μl/well) was added to extract the retained crystal violet. The absorbance at 570 nm was finally measured.
Tumor necrosis factor-α can cause direct cytotoxicity to the lung fibroblast cell line (L929). Bioassay of TNF α is designated on the basis of this cytotoxicity of TNF α, which can be used for the identification of murine TNF α activity in tissue culture supernatants. Culture supernatant collected from the synthetic molecules treated well containing LPS stimulated macrophage modulated the extent of cytotoxicity to the L929 cells (see Table 1).

Structures are written as SMILES.

Consider `COC(=O)c1ccc(OC(=O)c2ccc(O)c(OC)c2)c(OC)c1` [compound 10, 2-methoxy-4-(methoxycarbonyl)phenyl 4-hydroxy-3-methoxy benzoate], for which the “CONCENTRATION OF NITRITE μM ± SD” value with RAW 264.7 cells worked out at 6.849 ± 0.806 µM. Moreover, the viability at 10 µM with TNFα is 51.6 ± 1.4%.
`C/C=C/c1ccc(OC(=O)c2ccc(O)c(OC)c2)c(OC)c1` [compound 14, 2-Methoxy-4-[(1E)-prop-1en-1-yl]phenyl4-hydroxy-3-methoxy benzoate]: the “CONCENTRATION OF NITRITE μM ± SD” value in the experiment with RAW 264.7 cells is 8.382 ± 0.278 µM. Besides, in the experiment on TNFα, the viability at 10 µM was found to be 51 ± 1.91%.
`C=CCc1ccc(OC(=O)/C=C/c2ccc(O)c(O)c2)c(OC)c1` [compound 4, 4-allyl-2-methoxyphenyl (2E)-3-(3,4-dihydroxyphenyl)acrylate]: the “CONCENTRATION OF NITRITE μM ± SD” value with RAW 264.7 cells stood at 3.093 ± 0.437 µM. The viability at 10 µM with TNFα was 69.1 ± 1.49%.
In the same order, the values of `C/C=C/c1cc(OC)c2c(c1)[C@@H](C)[C@H](c1ccc(OC(=O)/C=C/c3ccc(O)c(OC)c3)c(OC)c1)O2` (racemic) [compound 25, (±)-2β-[4-O-(3-methoxy-4-hydroxycinnamoyl)-3-methoxyphenyl]-3α-methyl-7-methoxy-5-[(E)-1-propenyl]-2,3-dihydrobenzofuran] are 7.871 ± 0.168 µM and 53.7 ± 2.05%.
Regarding `COc1cc(C=O)ccc1OC(=O)/C=C/c1ccc(O)cc1` [compound 19, 4-formyl-2-methoxyphenyl (2E)-3-(4-hydroxyphenyl)acrylate], the “CONCENTRATION OF NITRITE μM ± SD” value in the experiment with RAW 264.7 cells turned out to be 8.227 ± 0.115 µM. For the same compound, the viability at 10 µM with TNFα came out at 51.6 ± 1.57%.
On the same counts, the results for `COC(=O)/C=C/c1ccc(OC(=O)c2ccc(O)c(OC)c2)c(OC)c1` [compound 11, 2-methoxy-4-[(1E)-3-methoxy-3-oxoprop-1-en-1yl]phenyl 4-hydroxy-3-methoxybenzoate] are 5.604 ± 0.668 µM and 52.4 ± 1.51%.
As for `C/C=C/c1cc(OC)c2c(c1)[C@@H](C)[C@H](c1ccc(OC(=O)/C=C/c3ccc(O)c(O)c3)c(OC)c1)O2` (racemic) [compound 5, (±)-2β-[4-O-(3,4,-dihydroxycinnamoyl)-3-methoxyphenyl]-3α-methyl-7-methoxy-5-[(E)-1-propenyl]-2,3 dihydrobenzofuran], in the experiment with RAW 264.7 cells, the “CONCENTRATION OF NITRITE μM ± SD” value is 3.449 ± 0.315 µM. Besides, the viability at 10 µM in the experiment on TNFα is 67.8 ± 0.866%.
For the compound `COC(=O)c1ccccc1OC(=O)/C=C/c1ccc(O)c(O)c1` [compound 3, Methyl 2-{[(2E)-3-(3,4-dihydroxyphenyl)prop-2-enoyl]oxy}benzoate], the “CONCENTRATION OF NITRITE μM ± SD” value in the experiment with RAW 264.7 cells was found to be 3.022 ± 0.300 µM. Also, the viability at 10 µM in the experiment on TNFα worked out at 67 ± 2.3%.
On to `COc1cc(C=O)ccc1OC(=O)/C=C/c1ccc(O)c(O)c1` [compound 8, 4-formyl-2-methoxyphenyl (2E)-3-(3,4-dihydroxyphenyl)acrylate], for which, in the experiment on RAW 264.7 cells, the “CONCENTRATION OF NITRITE μM ± SD” value is 3.893 ± 0.133 µM. Moreover, in the experiment with TNFα, the viability at 10 µM turned out to be 67.8 ± 1.25%.
In the same order, the values of `COC(=O)/C=C/c1cc(OC)c2c(c1)[C@@H](C(=O)OC)[C@H](c1ccc(OC(=O)/C=C/c3ccc(O)cc3)c(OC)c1)O2` [compound 24] are 8.582 ± 0.214 µM and 50.3 ± 1.28%.
On the same counts, the results for `C/C=C/c1ccc(OC(=O)/C=C/c2ccc(O)cc2)c(OC)c1` [compound 23, 2-methoxy-4-[(1E)-prop-1-en-1-yl]phenyl (2E)-3-(4-hydroxyphenyl)acrylate] are 8.338 ± 0.204 µM and 51.2 ± 1.55%.
For the compound `COC(=O)/C=C/c1ccc(OC(=O)/C=C/c2ccc(O)c(O)c2)c(OC)c1` [compound 2, 2-methoxy-4-[(1E)-3-methoxy-3-oxoprop-1-en-1-yl]phenyl (2E)-3-(3,4 dihydroxyphenyl)acrylate], the “CONCENTRATION OF NITRITE μM ± SD” value in the experiment with RAW 264.7 cells was 2.404 ± 0.168 µM. Moreover, the viability at 10 µM in the experiment on TNFα was 68%.
On the same counts, the results for `COC(=O)c1ccccc1OC(=O)c1ccc(O)c(OC)c1` [compound 9, 2-(Methoxycarbonyl)phenyl 4-hydroxy-3-methoxybenzoate] are 7.582 ± 0.868 µM and 51.1 ± 2.77%.
As for `C=CCc1ccc(OC(=O)c2ccc(O)c(OC)c2)c(OC)c1` [compound 13, 4-allyl-2-methoxyphenyl 4-hydroxy-3-methoxybenzoate], in the experiment on RAW 264.7 cells, the “CONCENTRATION OF NITRITE μM ± SD” value worked out at 8.004 ± 0.379 µM. Moreover, the viability at 10 µM in the experiment on TNFα is 50.6 ± 1.6%.
On the same counts, the results for `COC(=O)/C=C/c1ccc(OC(=O)/C=C/c2ccc(O)cc2)c(OC)c1` [compound 18, 2-methoxy-4-[(1E)-3-methoxy-3-oxoprop-1-en-1-yl]phenyl (2E)-3-(4-hydroxyphenyl)acrylate] are 7.960 ± 0.437 µM and 50.4 ± 1.57%.
With `C/C=C/c1cc(OC)c2c(c1)[C@@H](C)[C@H](c1ccc(OC(=O)c3ccc(O)c(OC)c3)c(OC)c1)O2` (racemic) [compound 16, (±)-2β-[4-O-(3-methoxy-4-hydroxybenzoyl)-3-methoxyphenyl]-3α-methyl-7-methoxy-5-[(E)-1-propenyl]-2,3-dihydrobenzofuran], in the experiment with RAW 264.7 cells, the “CONCENTRATION OF NITRITE μM ± SD” value came to 8.449 ± 0.234 µM. Besides, in the experiment with TNFα, the viability at 10 µM was determined as 49 ± 1.99%.
On the same counts, the results for `C=CCc1ccc(OC(=O)/C=C/c2ccc(O)cc2)c(OC)c1` [compound 21, 4-allyl-2-methoxyphenyl (2E)-3-(4-hydroxyophenyl)acrylate] are 8.293 ± 0.371 µM and 52.3 ± 1.25%.
In the case of `COC(=O)/C=C/c1cc(OC)c2c(c1)[C@@H](C(=O)OC)[C@H](c1ccc(OC(=O)c3ccc(O)c(OC)c3)c(OC)c1)O2` [compound 12, Methyl(E)-3-[2β-{4-O-(3-methoxy-4-hydroxyphenylcarbonyl)-3-methoxyphenyl}-7-methoxy-3α-methoxycarbonyl-2,3-dihydro-1-benzofuran-5-yl]prop-2-enoate], the “CONCENTRATION OF NITRITE μM ± SD” value with RAW 264.7 cells was found to be 9.582 ± 0.482 µM. Further, the viability at 10 µM with TNFα amounted to 51.3 ± 1.21%.
For the compound `COc1cc([C@@H]2Oc3c(O)cc(/C=C/C(=O)O)cc3[C@H]2C(=O)O)ccc1O` [compound 28, 5-[(E)-2-carboxyvinyl]-7-hydroxy-2β-(4-hydroxy-3-methoxyphenyl)-2,3-dihydro-1-benzofuran-3α-carboxylic acid], the “CONCENTRATION OF NITRITE μM ± SD” value in the experiment on RAW 264.7 cells stood at 7.604 ± 0.204 µM. Also, the viability at 10 µM in the experiment on TNFα was determined as 66.4 ± 1.11%.
In the same order, the values of `COC(=O)c1ccc(OC(=O)/C=C/c2ccc(O)cc2)c(OC)c1` [compound 17, methyl 4-{[(2E)-3-(4-hydroxyphenyl)prop-2-enoyl]oxy}-3-methoxy benzoate] are 8.404 ± 0.315 µM and 51.9 ± 1.43%.
On the same counts, the results for `COc1cc(C(=O)Oc2ccc(C=O)cc2OC)ccc1O` [compound 15, 4-formyl-2-methoxyphenyl 4-hydroxy-3-methoxybenozoate] are 8.271 ± 0.342 µM and 50.9 ± 1.84%.
Turning to `COC(=O)/C=C/c1cc(OC)c2c(c1)[C@@H](C(=O)OC)[C@H](c1ccc(OC(=O)/C=C/c3ccc(O)c(O)c3)c(OC)c1)O2` [compound 6, Methyl (E)-3-[2β-{4-O-(3,4-dihydroxycinnamoyl)-3-methoxyphenyl}-7-methoxy-3α-methoxycarbonyl-2,3-dihydro-1-benzofuran-5-yl]prop-2-enoate], the “CONCENTRATION OF NITRITE μM ± SD” value with RAW 264.7 cells amounted to 3.204 ± 0.168 µM. Further, in the experiment with TNFα, the viability at 10 µM was 66.6 ± 1.49%.
